Experimental data taken from US12577250B2, “1,2,4-triazolone derivative as DHODH inhibitor, and preparation method therefor and use thereof” (WIGEN BIOMEDICINE TECHNOLOGY (SHANGHAI) CO., LTD., priority 2021, dated 2026).
Read-outs that look alike come from different tables or passages of the source.

Experiments:
DHODH = DHODH (Homo sapiens, UniProt Q02127); assay: Assay against enzyme activity of DHODH (DCIP absorption at 600 nm); format: biochemical
Description: The enzyme activity of DHODH was assayed through a cascade reaction to determine its ability to catalyze the oxidation of a natural substrate DHO (dihydroorotic acid) to orotic acid while reducing coenzyme Q. The enzyme activity of DHODH was indirectly detected by assaying the ability of the coenzyme Q to reduce a chromogenic substrate DCIP. After the compound and an enzyme reaction mixture were incubated for 5 min, a reaction substrate DHO was added to start the reaction, and the enzyme activity was assayed by assaying the absorption at 600 nm to detect the DCIP exhaustion in a timed manner.

THP-1 cells = assay: Anti-proliferative activity on THP-1 cells (CellTiter-Lumi, 72 h); format: cell-based; details: read-out: Cell anti-proliferative activity IC50 THP-1
Description: (§1) THP-1 cells were seeded into a 384-well plate (Fisher 142762) at 3000 cells per well. The next day, serially diluted compounds were added, and 72 h after the addition, CellTiter-Lumi (Beyotime C0068XL) was added to measure the ATP content in the cells. The growth of the cells was evaluated, and IC50 of the compounds against cell growth was calculated.

MV-4-11 cells = assay: Anti-proliferative activity on MV-4-11 cells (CellTiter-Lumi, 72 h); format: cell-based; details: read-out: Cell anti-proliferative activity IC50 MV-4-11
Description: as §1, with “MV-4-11” for “THP-1”

[1] = Pharmacokinetic evaluation in mice; format: in vivo, male ICR mice
Description: The compounds were administered by intravenous injection at a dose of 2 mg/kg and oral gavage at a dose of 10 mg/kg (0.5% CMC-Na suspension). 15 male ICR mice were selected, and each mouse was subjected to blood collection at 3 discrete time points, with 3 mice per time point. The time points of sampling were as follows: before administration, and 5 min, 15 min, 30 min, 1 h, 3 h, 5 h, 8 h, 12 h and 24 h after administration. 80 μL of blood was collected from the orbits or hearts of the mice at each time point after administration. All whole blood samples were collected in tubes containing EDTAK2 and centrifuged (1500-1600 rmp/min) at 4° C. for 10 min to isolate plasma, which was then stored in a refrigerator at −90° C. to −60° C. for sample analysis. The compound concentration in the plasma was determined by liquid chromatography-tandem mass spectrometry, and the corresponding pharmacokinetic parameters were obtained according to a plasma concentration-time curve.

[2] = male, ICR, mouse, plasma, iv, 2 mg/kg
[3] = male, ICR, mouse, plasma, po, 10 mg/kg (0.5% CMC-Na suspension)
[4] = Homo sapiens, MV4-11, 72 h, class symbols

Chain of DHODH (Q02127 whole entry): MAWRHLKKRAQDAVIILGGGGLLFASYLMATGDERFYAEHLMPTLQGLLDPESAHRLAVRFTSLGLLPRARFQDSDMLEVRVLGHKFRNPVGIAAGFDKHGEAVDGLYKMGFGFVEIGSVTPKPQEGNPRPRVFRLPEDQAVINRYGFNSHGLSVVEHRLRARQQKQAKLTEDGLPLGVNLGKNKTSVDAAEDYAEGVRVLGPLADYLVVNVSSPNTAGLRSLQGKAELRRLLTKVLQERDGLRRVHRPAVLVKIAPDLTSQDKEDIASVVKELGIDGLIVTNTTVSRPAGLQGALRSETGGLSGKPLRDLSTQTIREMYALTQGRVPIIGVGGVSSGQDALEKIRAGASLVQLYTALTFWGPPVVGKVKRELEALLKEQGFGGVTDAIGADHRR

IC50 (DHODH) [nM]	IC50 (MV-4-11 cells; Homo sapiens, MV4-11, 72 h) [nM]	IC50 (MV-4-11 cells; [4]) [nM]	Molecule	also measured
< 50	1.27	–	C[C@H](Oc1cc(-n2nc3n(c2=O)CCC2(CC2)C3)c(F)cc1C(=O)Nc1c(F)cccc1Cl)C(F)(F)F [Compound 1, (S)—N-(2-chloro-6-fluorophenyl)-5-fluoro-4-(3′-oxo-5′,6′-dihydro-3′H-spiro[cyclopropane-1,7-[1,2,4]triazolo[4,3-α]pyridin]-2′(8′H)-yl)-2-((1,1,1-trifluoropropan-2-yl)oxy)benzamide]	IC50 (THP-1 cells; Homo sapiens): 27.6 nM; AUC(0-t) [1, 2]: 2530 ng·h/mL; clearance [1, 2]: 13.2 mL/min/kg; half-life [1, 2]: 1.79 h; Vd ([1]; male, ICR, mouse, plasma, iv, 2 mg/kg, read-out: Vss): 1.66 L/kg; AUC(0-t) [1, 3]: 7780 ng·h/mL; Cmax [1, 3]: 2240 ng/mL; Tmax [1, 3]: 0.25 h; half-life [1, 3]: 2.07 h; oral bioavailability (in words) ([1]; po): good oral bioavailability; F ([1]; po 10 mg/kg vs iv 2 mg/kg): 61.7%
< 50	–	≤ 50	C[C@H](Oc1cc(-n2nc3n(c2=O)CCC2(CC2)C3)c(F)cc1C(=O)Nc1c(F)cccc1Cl)C1CC1 [Compound 44]	–
< 50	10.7	–	C[C@H](Oc1cc(-n2nc3n(c2=O)CC2(CC2)C3)c(F)cc1C(=O)Nc1c(F)cccc1Cl)C(F)(F)F [Compound 48]	–
< 50	–	≤ 50	C[C@H](Oc1cc(-n2nc3n(c2=O)CC2(CC2)C3)c(F)cc1C(=O)Nc1c(F)cccc1Cl)C1CCCCC1 [Compound 49]	–
< 50	5.45	–	C[C@H](Oc1cc(-n2nc3n(c2=O)CCCC2(CC2)C3)c(F)cc1C(=O)Nc1c(F)cccc1Cl)C(F)(F)F [Compound 51]	IC50 (THP-1 cells; Homo sapiens): 47.6 nM
< 50	–	≤ 50	C[C@H](Oc1cc(-n2nc3n(c2=O)CCCC2(CC2)C3)c(F)cc1C(=O)Nc1c(F)cccc1Cl)C1CCCCC1 [Compound 52]	–
< 50	1.45	–	C[C@H](Oc1nc(-n2nc3n(c2=O)CCC2(CC2)C3)c(F)cc1C(=O)Nc1c(F)cccc1Cl)C1CCCCC1 [Compound 55]	–

Second part, the molecule before the results:

Molecule	IC50 (DHODH) [nM]	IC50 (MV-4-11 cells; Homo sapiens, MV4-11, 72 h) [nM]	IC50 (MV-4-11 cells; [4]) [nM]	also measured
C[C@H](Oc1cc(-n2nc3n(c2=O)CCC2(CC2)C3)c(F)cc1C(=O)Nc1c(F)cccc1Cl)C1CCC1 [Compound 45]	< 50	–	≤ 50	–
C[C@H](Oc1cc(-n2nc3n(c2=O)CCC2(CC2)C3)c(F)cc1C(=O)Nc1c(F)cccc1Cl)C1CCCC1 [Compound 46]	< 50	–	≤ 50	–
C[C@H](Oc1cc(-n2nc3n(c2=O)CCC2(CC2)C3)c(F)cc1C(=O)Nc1c(F)cccc1Cl)C1CCCCC1 [Compound 47]	< 50	–	≤ 50	–
CCC[C@H](C)Oc1cc(-n2nc3n(c2=O)CC2(CC2)C3)c(F)cc1C(=O)Nc1c(F)cccc1Cl [Compound 50]	< 50	–	≤ 50	–
CCC[C@H](C)Oc1cc(-n2nc3n(c2=O)CCCC2(CC2)C3)c(F)cc1C(=O)Nc1c(F)cccc1Cl [Compound 53]	< 50	6.89	–	–
C[C@H](Oc1nc(-n2nc3n(c2=O)CCC2(CC2)C3)c(F)cc1C(=O)Nc1c(F)cccc1Cl)C(F)(F)F [Compound 54, (S)—N-(2-chloro-6-fluorophenyl)-5-fluoro-4-(3′-oxo-5′,6′-dihydro-3′H-spiro[cyclopropane-1,7-[1,2,4]triazolo[4,3-α]pyridin]-2′(8′H)-yl)-2-((1,1,1-trifluoropropan-2-yl)oxy)benzamide]	< 50	0.51	–	IC50 (THP-1 cells; Homo sapiens): 24.5 nM
CCC[C@H](C)Oc1nc(-n2nc3n(c2=O)CCC2(CC2)C3)c(F)cc1C(=O)Nc1c(F)cccc1Cl [Compound 56]	< 50	1.97	–	–
COc1ncc(C)c(NC(=O)c2cc(F)c(-n3nc4n(c3=O)CCC3(CC3)C4)nc2O[C@@H](C)C(F)(F)F)c1Cl [Compound 57]	< 50	0.32	–	–
COc1ncc(C)c(NC(=O)c2cc(F)c(-n3nc4n(c3=O)CCC3(CC3)C4)nc2O[C@@H](C)C2CCCCC2)c1Cl [Compound 58]	< 50	0.75	–	–
CCC[C@H](C)Oc1nc(-n2nc3n(c2=O)CCC2(CC2)C3)c(F)cc1C(=O)Nc1c(C)cnc(OC)c1Cl [Compound 59]	< 50	2.05	–	–
BAY-2402234 [reference compound]	–	–	–	IC50 (THP-1 cells): 35.6 nM; IC50 (MV-4-11 cells): 3.82 nM
